According to patent US10906924B2, “Modulators of indoleamine 2,3-dioxygenase” (GLAXOSMITHKLINE INTELLECTUAL PROPERTY DEVELOPMENT LIMITED, priority 2017, dated 2021):

Target: indoleamine 2,3-dioxygenase (IDO1) (Homo sapiens, UniProt P14902)
Experiment: PBMC IDO1 assay (kynurenine by mass spectrometry)
Format: cell-based
Conditions: human PBMC stimulated with IFN-γ and LPS, 2 days incubation, kynurenine detected by mass spectrometry; read-out: IDO1 PBMC pIC50 (converted)

indoleamine 2,3-dioxygenase (IDO1), sequence (P14902 whole entry): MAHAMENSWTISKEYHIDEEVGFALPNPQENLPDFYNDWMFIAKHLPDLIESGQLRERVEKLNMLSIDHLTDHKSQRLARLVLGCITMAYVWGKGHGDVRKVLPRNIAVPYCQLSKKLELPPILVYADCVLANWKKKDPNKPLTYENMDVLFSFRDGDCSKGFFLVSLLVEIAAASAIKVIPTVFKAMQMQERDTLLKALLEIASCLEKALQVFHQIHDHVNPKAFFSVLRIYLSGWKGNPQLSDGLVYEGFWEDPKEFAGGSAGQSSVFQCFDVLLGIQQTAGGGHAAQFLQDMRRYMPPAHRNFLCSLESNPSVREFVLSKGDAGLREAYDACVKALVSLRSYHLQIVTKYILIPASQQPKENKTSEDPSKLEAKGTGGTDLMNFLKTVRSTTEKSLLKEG

| Compound | IC50 |
| --- | --- |
| COC(=O)N1CCC2(CC1)C[C@H](NC(=O)c1cccc3cc[nH]c13)c1cc(Br)ccc1O2 [Example 4, (S)-methyl 6-bromo-4-(1H-indole-7-carboxamido)spiro[chroman-2,4′-piperidine]-1′-carboxylate] | 3.98 nM |
| COC(=O)N1CCC2(CC1)C[C@H](NC(=O)c1cccc3cn[nH]c13)c1cc(Br)ccc1O2 [Example 5, (S)-methyl 6-bromo-4-(1H-indazole-7-carboxamido)spiro[chroman-2,4′-piperidine]-1′-carboxylate] | 5.01 nM |
| CCOC(=O)N1CCC2(CC1)C[C@H](NC(=O)c1cccc3[nH]ccc13)c1cc(Br)ccc1O2 [Example 8, (S)-ethyl 6-bromo-4-(1H-indole-4-carboxamido)spiro[chroman-2,4′-piperidine]-1′-carboxylate] | 5.01 nM |
| CCOC(=O)N1CCC2(CC1)CC(NC(=O)c1cccc3cn[nH]c13)c1nc(OC)ccc1O2 (stereo not drawn) [Example 9, ethyl 4′-(1H-indazole-7-carboxamido)-6′-methoxy-3′,4′-dihydrospiro[piperidine-4,2′-pyrano[3,2-b]pyridine]-1-carboxylate] | 10 nM |
| CCOC(=O)N1CCC2(CC1)C[C@H](NC(=O)c1ccccc1N)c1cc(Br)ccc1O2 [Example 10, (S)-ethyl 4-(2-aminobenzamido)-6-bromospiro[chroman-2,4′-piperidine]-1′-carboxylate] | 12.6 nM |
| CCOC(=O)N1CCC2(CC1)CC(NC(=O)c1cccc3cn[nH]c13)c1cc(Br)ncc1O2 (stereo not drawn) [Example 16, ethyl 6′-bromo-4′-(1H-indazole-7-carboxamido)-3′,4′-dihydrospiro[piperidine-4,2′-pyrano[2,3-c]pyridine]-1-carboxylate] | 31.6 nM |
| CCOC(=O)N1CCC2(CC1)CC(NC(=O)c1cccc3cc[nH]c13)c1c(Br)cccc1O2 (stereo not drawn) [Example 17, ethyl 5-bromo-4-(1H-indole-7-carboxamido)spiro[chroman-2,4′-piperidine]-1′-carboxylate] | 39.8 nM |
| CCOC(=O)N1CCC2(CC1)CC(NC(=O)c1cccc3cn[nH]c13)c1cc(CO)ccc1O2 (stereo not drawn) [Example 18, ethyl 6-(hydroxymethyl)-4-(1H-indazole-7-carboxamido)spiro[chroman-2,4′-piperidine]-1′-carboxylate] | 39.8 nM |
| CCOC(=O)N1CCC2(CC1)CC(NC(=O)c1cccnc1)c1cc(Br)ccc1O2 (stereo not drawn) [Example 21, ethyl 6-bromo-4-(nicotinamido)spiro[chroman-2,4′-piperidine]-1′-carboxylate] | 79.4 nM |
| CCCC(=O)N1CCC2(CC1)C[C@H](NC(=O)c1cccc3cn[nH]c13)c1cc(Br)ccc1O2 [Example 22, (S)—N-(6-bromo-1′-butyrylspiro[chroman-2,4′-piperidin]-4-yl)-1H-indazole-7-carboxamide] | 79.4 nM |
| CCOC(=O)N1CCC2(CC1)CC(NC(=O)c1cccc3cn[nH]c13)c1cc(Br)cnc1O2 (stereo not drawn) [Example 23, ethyl 6′-bromo-4′-(1H-indazole-7-carboxamido)-3′,4′-dihydrospiro[piperidine-4,2′-pyrano[2,3-b]pyridine]-1-carboxylate] | 79.4 nM |
| CCOC(=O)N1CCC2(CC1)CC(NC(=O)c1cccc3cc[nH]c13)c1ccc(Br)cc1O2 (stereo not drawn) [Example 24, ethyl 7-bromo-4-(1H-indole-7-carboxamido)spiro[chroman-2,4′-piperidine]-1′-carboxylate] | 100 nM |
| CCOC(=O)N1CCC2(CC1)C[C@H](NC(=O)c1cccc(O)n1)c1cc(Br)ccc1O2 [Example 25, (S)-ethyl 6-bromo-4-(6-hydroxypicolinamido)spiro[chroman-2,4′-piperidine]-1′-carboxylate] | 100 nM |
| CCOC(=O)N1CCC2(CC1)CC(NC(=O)c1cncc3cn[nH]c13)c1ccccc1O2 (stereo not drawn) [Example 26, ethyl 4-(1H-pyrazolo[4,3-c]pyridine-7-carboxamido)spiro[chroman-2,4′-piperidine]-1′-carboxylate] | 126 nM |
| CCOC(=O)N1CCC2(CC1)CC(NC(=O)c1cccc3cn[nH]c13)c1ncccc1O2 (stereo not drawn) [Example 29, ethyl 4′-(1H-indazole-7-carboxamido)-3′,4′-dihydrospiro[piperidine-4,2′-pyrano[3,2-b]pyridine]-1-carboxylate] | 158 nM |
| CCOC(=O)N1CCC2(CC1)CC(NC(=O)c1cncc(F)c1)c1ccccc1O2 (stereo not drawn) [Example 30, ethyl 4-(5-fluoronicotinamido)spiro[chroman-2,4′-piperidine]-1′-carboxylate] | 200 nM |
| O=C(N[C@H]1CC2(CCN(C(=O)Oc3ccccc3)CC2)Oc2ccc(Br)cc21)c1cccc2cn[nH]c12 [Example 31, (S)-phenyl 6-bromo-4-(1H-indazole-7-carboxamido)spiro[chroman-2,4′-piperidine]-1′-carboxylate] | 200 nM |
| CCOC(=O)N1CCC2(CC1)C[C@H](NC(=O)c1ncc[nH]1)c1cc(Br)ccc1O2 [Example 32, (S)-ethyl 6-bromo-4-(1H-imidazole-2-carboxamido)spiro[chroman-2,4′-piperidine]-1′-carboxylate] | 200 nM |

| Compound | IC50 |
| --- | --- |
| CCOC(=O)N1CCC2(CC1)CC(NC(=O)c1cccc3cn[nH]c13)c1ccncc1O2 (stereo not drawn) [Example 33, ethyl 4′-(1H-indazole-7-carboxamido)-3′,4′-dihydrospiro[piperidine-4,2′-pyrano[2,3-c]pyridine]-1-carboxylate] | 200 nM |
| CCOC(=O)N1CCC2(CC1)CC(NC(=O)c1ccccn1)c1ccccc1O2 (stereo not drawn) [Example 34, ethyl 4-(picolinamido)spiro[chroman-2,4′-piperidine]-1′-carboxylate] | 251 nM |
| CCOC(=O)N1CCC2(CC1)CC(NC(=O)c1cccnc1)c1nc(OC)ccc1O2 (stereo not drawn) [Example 35, ethyl 6′-methoxy-4′-(nicotinamido)-3′,4′-dihydrospiro[piperidine-4,2′-pyrano[3,2-b]pyridine]-1-carboxylate] | 251 nM |
| CCOC(=O)N1CCC2(CC1)CC(NC(=O)c1cccc3ccn(C)c13)c1ccccc1O2 (stereo not drawn) [Example 38, ethyl 4-(1-methyl-1H-indole-7-carboxamido)spiro[chroman-2,4′-piperidine]-1′-carboxylate] | 398 nM |
| CCOC(=O)N1CCC2(CC1)CC(NC(=O)c1cccc3nc[nH]c13)c1ccccc1O2 (stereo not drawn) [Example 39, ethyl 4-(1H-benzo[d]imidazole-7-carboxamido)spiro[chroman-2,4′-piperidine]-1′-carboxylate] | 398 nM |
| CCOC(=O)N1CCC2(CC1)CC(Nc1nnc(C(F)(F)F)s1)c1ccccc1O2 (stereo not drawn) [Example 40, ethyl 4-((5-(trifluoromethyl)-1,3,4-thiadiazol-2-yl)amino)spiro[chroman-2,4′-piperidine]-1′-carboxylate] | 398 nM |
| CCOC(=O)N1CCC2(CC1)CC(NC(=O)c1cccnc1)c1ccccc1O2 (stereo not drawn) [Example 41, ethyl 4-(nicotinamido)spiro[chroman-2,4′-piperidine]-1′-carboxylate] | 501 nM |
| CCOC(=O)N1CCC2(CC1)CC(NC(=O)c1cccc3cn[nH]c13)c1cccnc1O2 (stereo not drawn) [Example 42, ethyl 4′-(1H-indazole-7-carboxamido)-3′,4′-dihydrospiro[piperidine-4,2′-pyrano[2,3-b]pyridine]-1-carboxylate] | 501 nM |
| CCOC(=O)N1CCC2(CC1)CC(NC(=O)c1ccnn1C)c1ccccc1O2 (stereo not drawn) [Example 43, ethyl 4-(1-methyl-1H-pyrazole-5-carboxamido)spiro[chroman-2,4′-piperidine]-1′-carboxylate] | 631 nM |
| CCOC(=O)N1CCC2(CC1)C[C@H](NC(=O)c1ccn[nH]1)c1cc(Br)ccc1O2 [Example 44, (S)-ethyl 6-bromo-4-(1H-pyrazole-5-carboxamido)spiro[chroman-2,4′-piperidine]-1′-carboxylate] | 631 nM |
| CCOC(=O)N1CCC2(CC1)CC(NC(=O)c1ncccn1)c1ccccc1O2 (stereo not drawn) [Example 45, ethyl 4-(pyrimidine-2-carboxamido)spiro[chroman-2,4′-piperidine]-1′-carboxylate] | 794 nM |
| CCOC(=O)N1CCC2(CC1)CC(NC(=O)c1ncccc1OC)c1ccccc1O2 (stereo not drawn) [Example 46, ethyl 4-(3-methoxypicolinamido)spiro[chroman-2,4′-piperidine]-1′-carboxylate] | 794 nM |
| CCOC(=O)N1CCC2(CC1)C[C@H](NC(=O)c1cccc3cn(COP(=O)(O)O)nc13)c1cc(Br)ccc1O2 [Example 50, 2-amino-2-(hydroxymethyl)propane-1,3-diol hemi((S)-(7-((6-bromo-1-(ethoxycarbonyl)spiro[chroman-2,4′-piperidin]-4-yl)carbamoyl)-2H-indazol-2-yl)methyl phosphate)] | 126 nM |
| CCOC(=O)N1CCC2(CC1)C[C@H](NC(=O)c1cccc3cnn(C(=O)OCC)c13)c1cc(Br)ccc1O2 [Example 51, ethyl (S)-6-bromo-4-(1-(ethoxycarbonyl)-1H-indazole-7-carboxamido)spiro[chromane-2,4′-piperidine]-1′-carboxylate] | 10 nM |
| CCOC(=O)N1CCC2(CC1)C[C@H](NC(=O)c1cccc3cnn(C(C)=O)c13)c1cc(Br)ccc1O2 [Example 52, ethyl (S)-4-(1-acetyl-1H-indazole-7-carboxamido)-6-bromospiro [chromane-2,4′-piperidine]-1′-carboxylate] | 3.98 nM |
| COC(=O)N1CCC2(CC1)C[C@H](NC(=O)c1cccc3cn(COP(=O)(O)O)nc13)c1cc(Br)ccc1O2 [Example 53, 2-amino-2-(hydroxymethyl)propane-1,3-diol hemi((S)-(7-((6-bromo-1′-(methoxycarbonyl)spiro[chroman-2,4′-piperidin]-4-yl)carbamoyl)-2H-indazol-2-yl)methyl phosphate)] | 631 nM |
| COC(=O)N1CCC2(CC1)C[C@H](NC(=O)c1cccc3cn[nH]c13)c1ccccc1O2 [Example 54, methyl (S)-4-(1H-indazole-7-carboxamido)spiro[chromane-2,4′-piperidine]-1′-carboxylate] | 20 nM |
| CCOC(=O)N1CCC2(CC1)C[C@H](NC(=O)c1cccc3cn(COP(=O)(O)O)nc13)c1ccccc1O2 [Example 55, 2-amino-2-(hydroxymethyl)propane-1,3-diol hemi((S)-(7-((1′-(ethoxycarbonyl)spiro[chroman-2,4′-piperidin]-4-yl)carbamoyl)-2H-indazol-2-yl)methyl phosphate)] | 126 nM |
